Source: PMC6838339, “Discovery of Novel Multi-target Inhibitor of angiotensin type 1 receptor and neprilysin inhibitors from Traditional Chinese Medicine” (Scientific Reports, 2019)

Target: T1, Angiotensin II type-1 receptor (AT1) (Homo sapiens, UniProt P30556)
T1 construct: gene AGTR1
T1 sequence (P30556 1-359): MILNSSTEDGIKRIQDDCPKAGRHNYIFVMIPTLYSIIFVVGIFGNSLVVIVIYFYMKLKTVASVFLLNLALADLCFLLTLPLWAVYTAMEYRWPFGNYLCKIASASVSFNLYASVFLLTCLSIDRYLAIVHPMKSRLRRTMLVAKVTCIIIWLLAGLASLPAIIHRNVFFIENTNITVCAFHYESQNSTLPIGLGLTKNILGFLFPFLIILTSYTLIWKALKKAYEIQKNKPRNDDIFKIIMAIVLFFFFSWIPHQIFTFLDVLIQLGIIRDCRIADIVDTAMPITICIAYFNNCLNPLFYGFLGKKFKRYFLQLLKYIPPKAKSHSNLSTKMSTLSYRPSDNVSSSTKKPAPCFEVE
Test: FLIPR calcium influx assay in HEK293/Ga15/AT1 cells, angiotensin II stimulated
Format: cell-based

SMILES: Cc1cc(OC(=O)c2c(C)cc(OC(=O)c3c(C)cc(O)cc3O)cc2O)cc(O)c1C(=O)O [gyrophoric acid]
- IC50: 29.8 µM
